{"source": "paper PMC12203311", "about": "“Design, synthesis, in silico and in vitro evaluation of pyrrole–indole hybrids as dual tubulin and aromatase inhibitors with potent anticancer activities” (RSC Advances, 2025)", "assay_in_all_cases": "NCI60 five-dose screen", "key": {"SNB-19": {"system": "SNB-19", "format": "cell-based", "details": "Homo sapiens, SNB-19, CNS cancer"}, "NCI/ADR-RES": {"system": "NCI/ADR-RES", "format": "cell-based, human", "details": "Homo sapiens, ovarian cancer"}, "TK-10": {"system": "TK-10", "format": "cell-based", "details": "Homo sapiens, TK-10, renal cancer"}, "K-562": {"system": "K-562", "format": "cell-based", "details": "Homo sapiens, K562, K-562, leukemia"}, "A549/ATCC": {"system": "A549/ATCC", "format": "cell-based", "details": "Homo sapiens, NSC lung cancer"}, "HOP-62": {"system": "HOP-62", "format": "cell-based", "details": "Homo sapiens, HOP-62, NSC lung cancer"}, "SK-OV-3": {"system": "SK-OV-3", "format": "cell-based", "details": "Homo sapiens, SK-OV-3, ovarian cancer"}, "U251": {"system": "U251", "format": "cell-based", "details": "Homo sapiens, U-251, U251, CNS cancer"}, "COLO 205": {"system": "COLO 205", "format": "cell-based, human", "details": "Homo sapiens"}, "UACC-62": {"system": "UACC-62", "format": "cell-based", "details": "Homo sapiens, UACC-62, melanoma"}, "HCT-15": {"system": "HCT-15", "format": "cell-based", "details": "Homo sapiens, HCT-15, colon cancer"}, "HL-60 (TB)": {"system": "HL-60 (TB)", "format": "cell-based", "details": "Homo sapiens, leukemia"}, "PC-3": {"system": "PC-3", "format": "cell-based", "details": "Homo sapiens, PC-3, prostate cancer"}, "IGROV1": {"system": "IGROV1", "format": "cell-based", "details": "Homo sapiens, IGROV-1; IGROV1, ovarian cancer"}, "BT-549": {"system": "BT-549", "format": "cell-based", "details": "Homo sapiens, BT-549, breast cancer"}, "NCI-H460": {"system": "NCI-H460", "format": "cell-based", "details": "Homo sapiens, NCI-H460, NSC lung cancer"}, "MDA-MB-231/ATCC": {"system": "MDA-MB-231/ATCC", "format": "cell-based", "details": "Homo sapiens, breast cancer"}, "LOX IMVI": {"system": "LOX IMVI", "format": "cell-based", "details": "Homo sapiens, melanoma"}, "SK-MEL-2": {"system": "SK-MEL-2", "format": "cell-based", "details": "Homo sapiens, SK-MEL-2, melanoma"}, "SK-MEL-28": {"system": "SK-MEL-28", "format": "cell-based", "details": "Homo sapiens, SK-MEL-28, melanoma"}, "DU-145": {"system": "DU-145", "format": "cell-based", "details": "Homo sapiens, DU-145, prostate cancer"}, "OVCAR-3": {"system": "OVCAR-3", "format": "cell-based", "details": "Homo sapiens, OVCAR-3, ovarian cancer"}, "EKVX": {"system": "EKVX", "format": "cell-based", "details": "Homo sapiens, NSC lung cancer"}, "CAKI-1": {"system": "CAKI-1", "format": "cell-based", "details": "Homo sapiens, CAKI-1, renal cancer"}, "UACC-257": {"system": "UACC-257", "format": "cell-based", "details": "Homo sapiens, UACC-257, melanoma"}, "ACHN": {"system": "ACHN", "format": "cell-based", "details": "Homo sapiens, renal cancer"}, "RPMI-8226": {"system": "RPMI-8226", "format": "cell-based", "details": "Homo sapiens, RPMI-8226, leukemia"}, "NCI-H23": {"system": "NCI-H23", "format": "cell-based", "details": "Homo sapiens, NCI-H23, NSC lung cancer"}, "NCI-H522": {"system": "NCI-H522", "format": "cell-based", "details": "Homo sapiens, NCI-H522, NSC lung cancer"}, "OVCAR-4": {"system": "OVCAR-4", "format": "cell-based", "details": "Homo sapiens, OVCAR-4, ovarian cancer"}, "SK-MEL-5": {"system": "SK-MEL-5", "format": "cell-based, human", "details": "Homo sapiens"}, "SN12C": {"system": "SN12C", "format": "cell-based", "details": "Homo sapiens, renal cancer"}, "SF-295": {"system": "SF-295", "format": "cell-based", "details": "Homo sapiens, SF-295, CNS cancer"}, "OVCAR-8": {"system": "OVCAR-8", "format": "cell-based", "details": "Homo sapiens, OVCAR-8, ovarian cancer"}, "SNB-75": {"system": "SNB-75", "format": "cell-based", "details": "Homo sapiens, SNB-75, CNS cancer"}, "MCF7": {"system": "MCF7", "format": "cell-based", "details": "Homo sapiens, MCF7, breast cancer"}, "[1]": {"details": "read-out: LC50 (the source's name)"}}}
{"smiles": "O=C(N/N=C/c1ccc[nH]1)c1[nH]c2ccc(Br)cc2c1-c1ccccc1", "note": "[Derivative 3a, (E)-N′-((1H-Pyrrol-2-yl)methylene)-5-bromo-3-phenyl-1H-indole-2-carbohydrazide]", "values": [{"measurement": "GI50", "setting": "SNB-19", "result": 0.416, "unit": "µM"}, {"measurement": "CC50", "setting": "SNB-19; [1]", "result": 35, "unit": "µM"}, {"measurement": "GI50", "setting": "NCI/ADR-RES", "result": 0.44, "unit": "µM"}, {"measurement": "CC50", "setting": "NCI/ADR-RES; [1]", "result": 59.2, "unit": "µM"}, {"measurement": "GI50", "setting": "TK-10", "result": 2.46, "unit": "µM"}, {"measurement": "CC50", "setting": "TK-10; [1]", "result": 37.1, "unit": "µM"}, {"measurement": "GI50", "setting": "K-562", "result": 0.202, "unit": "µM"}, {"measurement": "CC50", "setting": "K-562; [1]", "result": "> 100", "unit": "µM"}, {"measurement": "GI50", "setting": "A549/ATCC", "result": 0.357, "unit": "µM"}, {"measurement": "CC50", "setting": "A549/ATCC; [1]", "result": 33.6, "unit": "µM"}, {"measurement": "GI50", "setting": "HOP-62", "result": 0.684, "unit": "µM"}, {"measurement": "CC50", "setting": "HOP-62; [1]", "result": 32.6, "unit": "µM"}, {"measurement": "GI50", "setting": "SK-OV-3", "result": 0.702, "unit": "µM"}, {"measurement": "CC50", "setting": "SK-OV-3; [1]", "result": 31.8, "unit": "µM"}, {"measurement": "GI50", "setting": "U251", "result": 0.375, "unit": "µM"}, {"measurement": "CC50", "setting": "U251; [1]", "result": 12.4, "unit": "µM"}, {"measurement": "CC50", "setting": "COLO 205; COLO 205, COLO 205, colon cancer, read-out: LC50 (the source's name)", "result": 35.1, "unit": "µM"}, {"measurement": "GI50", "setting": "COLO 205; COLO 205, colon cancer", "result": 0.261, "unit": "µM"}, {"measurement": "GI50", "setting": "UACC-62", "result": 0.099, "unit": "µM"}, {"measurement": "CC50", "setting": "UACC-62; [1]", "result": 8.03, "unit": "µM"}, {"measurement": "GI50", "setting": "HCT-15", "result": 0.269, "unit": "µM"}, {"measurement": "CC50", "setting": "HCT-15; [1]", "result": 32.3, "unit": "µM"}, {"measurement": "GI50", "setting": "HL-60 (TB)", "result": 0.242, "unit": "µM"}, {"measurement": "CC50", "setting": "HL-60 (TB); [1]", "result": "> 100", "unit": "µM"}, {"measurement": "GI50", "setting": "PC-3", "result": 0.344, "unit": "µM"}, {"measurement": "CC50", "setting": "PC-3; [1]", "result": 29.6, "unit": "µM"}, {"measurement": "GI50", "setting": "IGROV1", "result": 0.404, "unit": "µM"}, {"measurement": "LC50 (concentration causing 50% net cell kill)", "setting": "IGROV1", "result": 14.6, "unit": "µM"}, {"measurement": "GI50", "setting": "BT-549", "result": 0.375, "unit": "µM"}, {"measurement": "CC50", "setting": "BT-549; [1]", "result": 6.39, "unit": "µM"}, {"measurement": "GI50", "setting": "NCI-H460", "result": 0.318, "unit": "µM"}, {"measurement": "CC50", "setting": "NCI-H460; [1]", "result": 12.5, "unit": "µM"}, {"measurement": "GI50", "setting": "MDA-MB-231/ATCC", "result": 0.396, "unit": "µM"}, {"measurement": "CC50", "setting": "MDA-MB-231/ATCC; [1]", "result": 21, "unit": "µM"}, {"measurement": "GI50", "setting": "LOX IMVI", "result": 0.244, "unit": "µM"}, {"measurement": "CC50", "setting": "LOX IMVI; [1]", "result": 19, "unit": "µM"}, {"measurement": "GI50", "setting": "SK-MEL-2", "result": 0.357, "unit": "µM"}, {"measurement": "CC50", "setting": "SK-MEL-2; [1]", "result": 38.8, "unit": "µM"}, {"measurement": "GI50", "setting": "SK-MEL-28", "result": 0.488, "unit": "µM"}, {"measurement": "CC50", "setting": "SK-MEL-28; [1]", "result": 37.4, "unit": "µM"}, {"measurement": "GI50", "setting": "DU-145", "result": 0.429, "unit": "µM"}, {"measurement": "CC50", "setting": "DU-145; [1]", "result": 33.3, "unit": "µM"}, {"measurement": "GI50", "setting": "OVCAR-3", "result": 0.423, "unit": "µM"}, {"measurement": "CC50", "setting": "OVCAR-3; [1]", "result": 35.3, "unit": "µM"}, {"measurement": "GI50", "setting": "EKVX", "result": 1.23, "unit": "µM"}, {"measurement": "CC50", "setting": "EKVX; [1]", "result": 33.4, "unit": "µM"}, {"measurement": "GI50", "setting": "CAKI-1", "result": 0.257, "unit": "µM"}, {"measurement": "CC50", "setting": "CAKI-1; [1]", "result": 30.9, "unit": "µM"}, {"measurement": "GI50", "setting": "UACC-257", "result": 0.647, "unit": "µM"}, {"measurement": "CC50", "setting": "UACC-257; [1]", "result": 47.1, "unit": "µM"}, {"measurement": "GI50", "setting": "ACHN", "result": 0.355, "unit": "µM"}, {"measurement": "CC50", "setting": "ACHN; [1]", "result": 21.2, "unit": "µM"}, {"measurement": "GI50", "setting": "RPMI-8226", "result": 0.337, "unit": "µM"}, {"measurement": "CC50", "setting": "RPMI-8226; [1]", "result": "> 100", "unit": "µM"}, {"measurement": "GI50", "setting": "NCI-H23", "result": 0.504, "unit": "µM"}, {"measurement": "CC50", "setting": "NCI-H23; [1]", "result": 37.7, "unit": "µM"}, {"measurement": "GI50", "setting": "NCI-H522", "result": 0.045, "unit": "µM"}, {"measurement": "CC50", "setting": "NCI-H522; [1]", "result": 22, "unit": "µM"}, {"measurement": "GI50", "setting": "OVCAR-4", "result": 0.814, "unit": "µM"}, {"measurement": "CC50", "setting": "OVCAR-4; [1]", "result": 33.6, "unit": "µM"}, {"measurement": "CC50", "setting": "SK-MEL-5; SK-MEL-5, SK-MEL-5, melanoma, read-out: LC50 (the source's name)", "result": 15.7, "unit": "µM"}, {"measurement": "GI50", "setting": "SK-MEL-5; SK-MEL-5, melanoma", "result": 0.302, "unit": "µM"}, {"measurement": "GI50", "setting": "SN12C", "result": 0.371, "unit": "µM"}, {"measurement": "CC50", "setting": "SN12C; [1]", "result": 3.97, "unit": "µM"}, {"measurement": "GI50", "setting": "SF-295", "result": 0.224, "unit": "µM"}, {"measurement": "CC50", "setting": "SF-295; [1]", "result": 23.2, "unit": "µM"}, {"measurement": "GI50", "setting": "OVCAR-8", "result": 0.323, "unit": "µM"}, {"measurement": "CC50", "setting": "OVCAR-8; [1]", "result": 6.55, "unit": "µM"}, {"measurement": "GI50", "setting": "SNB-75", "result": 0.136, "unit": "µM"}, {"measurement": "CC50", "setting": "SNB-75; [1]", "result": 16, "unit": "µM"}, {"measurement": "GI50", "setting": "MCF7", "result": 0.136, "unit": "µM"}, {"measurement": "CC50", "setting": "MCF7; [1]", "result": 29.1, "unit": "µM"}]}
